Broadly, the Emax is the greatest response seen or fitted, relative to the assay's reference. The Ki is the equilibrium dissociation constant of an inhibitor or competing ligand from its target.

The target of assay [1] is T1, human 5-HT1A receptor subtype (Homo sapiens, UniProt P08908).
T1 construct: expressed in transfected cells
T1 sequence (P08908 1-422): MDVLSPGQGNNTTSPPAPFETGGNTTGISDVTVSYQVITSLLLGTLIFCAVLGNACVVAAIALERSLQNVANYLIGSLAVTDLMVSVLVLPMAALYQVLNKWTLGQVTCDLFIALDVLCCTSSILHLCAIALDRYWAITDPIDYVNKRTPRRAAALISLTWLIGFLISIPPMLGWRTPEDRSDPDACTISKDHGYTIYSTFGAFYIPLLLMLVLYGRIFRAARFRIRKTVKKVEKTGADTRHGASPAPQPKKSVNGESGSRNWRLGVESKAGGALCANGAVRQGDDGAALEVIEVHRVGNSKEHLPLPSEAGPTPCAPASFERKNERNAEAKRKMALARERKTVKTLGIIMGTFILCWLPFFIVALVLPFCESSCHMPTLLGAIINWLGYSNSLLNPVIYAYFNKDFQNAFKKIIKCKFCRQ
Nature of the assay: cAMP formation in forskolin-treated cells (cAMP SPA assay). The assay is classed as cell-based. The conditions noted are these: forskolin 1 uM, 10 min at 37°C. As for the experimental part: (§1) The PCR cloning of the human 5-HT1A receptor subtype from a human genomic library has been described previously Chanda et al., Mol. Pharmacol., 43:516 (1993). A stable Chinese hamster ovary cell line expressing the human 5-HT1A receptor subtype (5-HT1A.CHO cells) was employed throughout this study. Cells were maintained in DMEM supplemented with 10% foetal calf serum, non-essential amino acids and penicillin/ streptomycin.
The following assays were performed by incubating the cells with DMEM containing 25 mM HEPES, 5 mM theophylline and 10 µM pargyline for a period of 20 minutes at 37°C. Functional activity was assessed by treating the cells with forskolin (1 uM final concentration) followed immediately by test compound (6 concentrations) for an additional 10 min at 37°C. In separate experiments, 6 concentrations of antagonist were preincubated for 20 min prior to the addition of 10 nM 8-OH-DPAT and forskolin. The reaction was terminated by removal of the media and addition of 0.5 ml ice cold assay buffer. Plates were stored at -20°C prior to assessment of cAMP formation by a cAMP SPA assay (Amersham).
In general terms: cAMP levels reflect the balance of adenylyl cyclase and phosphodiesterase activity.

The target in the next assay is T2, serotonin transporter (Rattus norvegicus, UniProt P31652).
T2 construct: frontal cortical membranes prepared from male Sprague-Dawley rats; from tissue; host or cells: rat frontal cortex membranes
T2 sequence (P31652 whole entry): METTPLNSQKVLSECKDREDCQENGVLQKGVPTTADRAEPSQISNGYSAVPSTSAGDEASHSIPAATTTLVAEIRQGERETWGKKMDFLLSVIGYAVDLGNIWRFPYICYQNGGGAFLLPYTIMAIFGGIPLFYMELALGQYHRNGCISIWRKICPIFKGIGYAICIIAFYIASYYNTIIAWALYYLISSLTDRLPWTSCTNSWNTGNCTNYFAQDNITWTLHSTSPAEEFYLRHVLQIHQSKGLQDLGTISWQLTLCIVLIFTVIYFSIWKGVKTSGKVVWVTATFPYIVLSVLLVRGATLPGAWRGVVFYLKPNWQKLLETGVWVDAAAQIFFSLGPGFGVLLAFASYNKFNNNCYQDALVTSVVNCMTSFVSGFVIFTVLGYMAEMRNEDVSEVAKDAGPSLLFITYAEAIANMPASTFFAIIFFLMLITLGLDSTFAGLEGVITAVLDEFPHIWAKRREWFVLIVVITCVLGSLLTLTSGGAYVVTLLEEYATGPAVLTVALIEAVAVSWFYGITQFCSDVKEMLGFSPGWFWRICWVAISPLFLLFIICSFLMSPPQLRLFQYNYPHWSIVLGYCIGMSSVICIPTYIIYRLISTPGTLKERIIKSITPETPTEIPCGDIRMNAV
Nature of the assay: serotonin transporter affinity, 3H-paroxetine binding to frontal cortical membranes. Details: species or system male Sprague-Dawley rats. The conditions noted are these: 3H-paroxetine 0.1 nM, rat frontal cortical membranes; read-out: ST (Ki). The method, then:
Briefly, frontal cortical membranes prepared from male Sprague-Dawley rats were incubated with ^3H-paroxetine (0.1 nM) for 60 min at 25°C. All tubes also contained either vehicle, test compound (one to eight concentrations), or a saturating concentration of fluoxetine (10 µM) to define specific binding. All reactions are terminated by the addition of ice cold Tris buffer followed by rapid filtration using a Tom Tech filtration device to separate bound from free ^3H-paroxetine.

The target in assay [2] is T1, human 5-HT1A receptor subtype. The assay is described as follows: 5-HT1A receptor binding assay with [3H]8-OH-DPAT on membranes of 5-HT1A.CHO cells. The conditions noted are these: [3H]8-OH-DPAT 1.5 nM, CHO cell membranes. The method, then:
as §1
Cells were grown to 95-100% confluency as a monolayer before membranes were harvested for binding studies. Cells were gently scraped from the culture plates, transferred to centrifuge tubes, and washed twice by centrifugation (2000 rpm for 10 min., 4°C) in buffer (50 mM Tris; pH 7.5). The resulting pellets were aliquoted and placed at -80°C. On the day of assay, the cells were thawed on ice, and resuspended in buffer. Studies were conducted using [^3H]8-OH-DPAT as the radioligand. The binding assay was performed in 96 well microtiter plates in a final total volume of 250 µL of buffer. Competition experiments were performed by using 7 concentrations of unlabelled drug and a final ligand concentration of 1.5 nM . Non-specific binding was determined in the presence of 10 µM 5HT. Saturation analysis was conducted by using [^3H]8-OH-DPAT at concentrations ranging from 0.3-30 nM. Following a 30 minute incubation at room temperature, the reaction was terminated by the addition of ice cold buffer and rapid filtration using a M-96 Brandel Cell Harvester (Gaithersburg, MD) through a GF/B filter presoaked for 30 minutes in 0.5% polyethyleneimine.

Another assay has as its target T3, 5-HT1A cloned receptor (Homo sapiens, UniProt P08908).
T3 construct: expressed in transfected cells
T3 sequence (P08908 1-422): T1 sequence (P08908 1-422)
Nature of the assay: [35S]-GTPγS binding assay on 5-HT1A cloned receptor membrane fragments. The assay is classed as biochemical. The conditions noted are these: maximum agonist response defined by excess 8-OH-DPAT. The method, then:
The [^35S]-GTPγS binding assay was similar to that used by Lazareno and Birdsall, Br. J. Pharmacol. 109:1120 (1993). Briefly, 5-HT1A cloned receptor membrane fragments (as used for 5-HT1A receptor binding assays) were stored at -70 °C until needed. When needed, membranes were rapidly thawed, centrifuged at 40,000 x g for 10 minutes and resuspended at 4 °C for 10 minutes in assay buffer (25 mM HEPES, 3 mM MgCl2, 100 mM NaCI, 1 mM EDTA, 10 uM GDP, […] DTT, pH 8.0). These membranes were then incubated for 30 min at 30 °C with [^35S]GTPgS (1 nM) in the presence of vehicle, test compound (one to eight concentrations), or excess 8-OH-DPAT to define maximum agonist response. All reactions are terminated by the addition of ice cold Tris buffer followed by rapid filtration using a Tom Tech® filtration device to separate bound from free [^35S]GTPgS. Agonists produce an increase in the amount of [^35S]GTPgS bound whereas antagonists produce no increase in binding. Bound radioactivity was counted and analyzed as above.
On the technique in general: GTPγS is a poorly hydrolysed GTP analogue; its binding reports G protein activation.

Each structure is given as a SMILES string.

Turning to `Cc1nc2c(OCCN[C@H]3CC[C@H](c4c[nH]c5ccc(F)cc54)CC3)cc(Cl)cc2[nH]1` [Example 8b, [2-(6-Chloro-2-methyl-1H-benzoimidazol-4-yloxy)-ethyl]-[(1,4-trans)-4-(5-fluoro-1H-indol-3-yl)-cyclohexyl]-amine], the Emax in assay [1] came out at 0%. The Ki came to 0.52 nM at serotonin transporter and 18.9 nM in assay [2].

Consider `COc1ccc(F)cc1OCCN[C@H]1CC[C@H](c2c[nH]c3cc(F)ccc32)CC1` [Example 2b, [(1,4-trans)-4-(6-Fluoro-1H-indol-3-yl)-cyclohexyl]-[2-(5-fluoro-2-methoxy-phenoxy)-ethyl]-amine], for which the Emax (in assay [1]; on 5-HT1A cloned receptor) was 0% in each case. Besides, the inhibition constant Ki was determined as 0.42 nM at serotonin transporter and 47.8 nM in assay [2].

With `Fc1cc2c(c(OCCN[C@H]3CC[C@H](c4c[nH]c5ccc(F)cc54)CC3)c1)OCCC2` [Example 5b, [2-(6-Fluoro-chroman-8-yloxy)-ethyl]-[(1,4-trans)-4-(5-fluoro-1H -indol-3-yl)-cyclohexyl]-amine], the figures for the Emax (in assay [1]; on 5-HT1A cloned receptor) were 0% and 22%, respectively. For the same molecule, the Ki amounted to 1.52 nM on serotonin transporter and 19.4 nM in assay [2].

As to `Fc1ccc2[nH]cc([C@H]3CC[C@H](NCCOc4cccc5[nH]ccc45)CC3)c2c1` [Example 3b], the values for the Emax (in assay [1]; on 5-HT1A cloned receptor) were 90% and 62%, respectively. The Ki at serotonin transporter came to 2.5 nM; in assay [2], 1.08 nM.

For the molecule `N#Cc1ccc2[nH]cc([C@H]3CC[C@H](NCCOc4cc(F)cc5c4OCCC5)CC3)c2c1` [Example 5f, 3-{(1,4-trans)-4-[2-(6-Fluoro-chroman-8-yloxy)-ethylamino]-cyclohexyl}-1H-indole-5-carbonitrile], the Emax was 0% in assay [1] and 30% at 5-HT1A cloned receptor. Further, the figures for the Ki (on serotonin transporter; in assay [2]) were 2.6 nM and 10.1 nM, respectively.

As for `Fc1ccc2[nH]cc([C@H]3CC[C@H](NCCOc4cccc5c4OCCO5)CC3)c2c1` [Example 4b], the Emax in assay [1] stood at 61%. In addition, the figures for the Ki (at serotonin transporter; in assay [2]) were 1.12 nM and 18.9 nM, respectively.

(Values after patent EP1068184B1, “N-ARYLOXYETHYLAMINE DERIVATIVES FOR THE TREATMENT OF DEPRESSION” (Wyeth, priority 1998, dated 1999).)
